Data on four molecules can be found in PMC3262893 (Phytochemistry, 2011).

*1 amine or outer side, *2 acyl side, *3 side chain or, on linkers, in order; H or OH if unused. Where a SMILES comes first, the peptide text is derived from it. Bridges are numbered along the chain shown (N, C = ends). [ ]: non-standard residue; d: D form. ξ: configuration not given here. X3 = CC(=O)N(C)C(Cc1ccc(O)cc1)C(=O)OC(CC(O)C(O)CC(C)C)CC(N[*:2])C(O)C(=O)[*:1]; X2 = COc1ccc(CCC(N[*:1])C(=O)[*:2])cc1; d(aIle) = CC[C@H](C)[C@@H](N)C(=O)O; hTyr = N[C@@H](CCc1ccc(O)cc1)C(=O)O; hPhe = N[C@@H](CCc1ccccc1)C(=O)O; X1 = C/C=C(/N[*:1])C(=O)[*:2]; ξhPhe = NC(CCc1ccccc1)C(=O)O; NMeA = CN[C@@H](C)C(=O)O; CO = O=C([*:1])[*:2]

This assay has as its target 20S proteasome, human (Homo sapiens, UniProt P28074). The assay is described as follows: 20S proteasome assay. The format is biochemical. The following applies: chymotrypsin-like activity; for 20S proteasome inhibitory activity: at 50 μM; for IC50: read-out: 20S proteasome inhibition IC50.

Turning to `CC[C@H](C)[C@@H]1NC(=O)[C@H](NC(=O)N[C@H](Cc2ccccc2)C(=O)O)CCCCNC(=O)[C@H](CCc2ccccc2)NC(=O)[C@H](C)N(C)C(=O)[C@H](CCc2ccc(O)cc2)NC1=O` [compound 1, Lyngbyaureidamide A] ({dF-CO}-[dK]I[hTyr][NMeA][hPhe]; lactam 1-C), the “20S proteasome inhibitory activity” value is on record as “not active”.
As to `C/C=C1/NC(=O)[C@H](CO)NC(=O)[C@@H]([C@@H](C)CC)NC(=O)[C@@H]2CCCN2C(=O)[C@@H]2CCCN2C(=O)CNC(=O)[C@H](CCC(N)=O)NC(=O)C(O)C(CC(CC(O)C(O)CC(C)C)OC(=O)C(Cc2ccc(O)cc2)N(C)C(C)=O)NC(=O)[C@@H]2CCCN2C(=O)C(CCc2ccccc2)NC(=O)[C@H]([C@@H](C)O)NC1=O` (stereo partly shown) [compound 4, Lyngbyazothrin D] (QGPP[d(aIle)]S[X1]T[ξhPhe]P; linker N-C via X3), the IC50 (as a rule, the point on the concentration scale where inhibition reaches its midpoint) turned out to be 19.2 µM.
Regarding `C/C=C1/NC(=O)[C@H](CO)NC(=O)[C@@H]([C@@H](C)CC)NC(=O)[C@@H]2CCCN2C(=O)[C@@H]2CCCN2C(=O)CNC(=O)[C@H](CCC(N)=O)NC(=O)C(O)C(CC(CC(O)C(O)CC(C)C)OC(=O)C(Cc2ccc(O)cc2)N(C)C(C)=O)NC(=O)[C@@H]2CCCN2C(=O)C(CCc2ccc(OC)cc2)NC(=O)[C@H]([C@@H](C)O)NC1=O` (stereo partly shown) [compound 3, Lyngbyazothrin C] (QGPP[d(aIle)]S[X1]T[X2]P; linker N-C via X3), the IC50 was found to be 7.1 µM.
Regarding `CC[C@H](C)[C@@H]1NC(=O)[C@H](NC(=O)N[C@H](Cc2ccccc2)C(=O)O)CCCCNC(=O)[C@H](Cc2ccccc2)NC(=O)[C@H](C)N(C)C(=O)[C@H](CCc2ccc(O)cc2)NC1=O` [compound 2, Lyngbyaureidamide B] ({dF-CO}-[dK]I[hTyr][NMeA]F; lactam 1-C), the “20S proteasome inhibitory activity” value is listed as “not active”.
